Reference: patent publication US20080292584A1 (priority 2005, published 2008)
Several values for one entry are separate records, joined by “and”; a condition that tells them apart may be missing. Equal entries are not always repeated.

Experiments:
CYP3A4 = CYP3A4 (Homo sapiens, UniProt P08684); experiment: Induction/inhibition of CYP3A4 activity in cryopreserved human hepatocytes (testosterone)
Source text: Hepatocytes from three human donors were obtained from a cryopreserved hepatocyte bank (In Vitro Technologies, Inc., USA). After thawing, viable hepatocytes were transferred to collagen-coated 48-well plates for attachment in plating medium (DMEM stock (Dulbecco's modified Eagle's medium, supplemented with bovine serum albumin, fructose, N-(2-hydroxyethyl)piperazine-N′-(2-ethanesulfonate) (HEPES), and sodium bicarbonate), supplemented with antibiotics, bovine serum, hydrocortisone, insulin and minimum essential medium (MEM) nonessential amino acids). After attachment to the collagen matrix, plating medium was replaced with sandwich medium (plating medium supplemented with VITROGEN) and incubated until use.
The supplemented KHB was replaced with 150 μL supplemented KHB containing the appropriate isoform-selective substrate and incubated for 4 hrs prior to termination by adding 150 μL ice-cold methanol, except for the CYP2C8 incubations which were terminated by adding 150 μL acetonitrile.
All substrates were dissolved in acetonitrile.
Replicate trials and controls were performed. […] Additionally, reference control samples were included to evaluate inducibility of CYP2B6, CYP2C9, and CYP2C19 in the test system.
Mean specific activity values with associated p-values≦0.05 were deemed to be statistically significant.

CYP2D6 = CYP2D6 (Homo sapiens, UniProt P10635); experiment: Metabolism of metaxalone by expressed recombinant human CYP2D6 (Example 1); conditions: 30 min;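 further: reactions in 0.5 mL were started by adding an NADPH regenerating system after 5 min preincubation, with background signal estimated from controls containing only matrix components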
Protocol: Commercially available microsomes from baculovirus-infected insect cells containing singly-expressed recombinant wild-type (*1 allele) human CYP enzymes and cDNA-expressed human cytochrome p450 oxidoreductase [BD SUPERSOMES Enzymes; BD Biosciences Discovery Labware (Woburn, Mass.)] were used.
After a 5-minute pre-incubation, an NADPH regenerating system (NRS) was added to the incubation mixtures to initiate reactions, with a final incubation volume of 0.5 mL. Incubations were continued for 30 minutes, and then terminated, except for those for CYP2C19, which were incubated for 36 minutes prior to termination.
Matrix controls were performed to determine the background signal from the matrix components (microsomes (10 pmol p450), 01N Tris buffer, NRS, and 1% methanol). […] After a 5-minute pre-incubation, 2% sodium bicarbonate solution was added to the incubation mixtures. Incubation was for 30 minutes at a final volume of 0.5 mL. Matrix and metabolic negative controls were terminated by adding an equal volume of methanol. […] Analysis of samples was subsequent to storage at −70° C.

CYP2C19 = CYP2C19 (Homo sapiens, UniProt P33261); experiment: Metabolism of metaxalone by expressed recombinant human CYP2C19 at 5 or 20 pmol (Example 4); conditions: for percent turnover / % Turnover Mean / [metaxalone] Mean / % Turnover % / [metaxalone]: 60 min; for % Turnover % / [metaxalone]: single replicates, listed as Metaxalone
CYP2C8 = molecular target: T1, CYP2C8 (Homo sapiens, UniProt P10632); experiment: Chemical inhibition of metaxalone turnover in human liver microsomes, CYP2C8 inhibitor quercetin; conditions: 1 mg/mL HLM, 60 min, with quercetin, single replicates
T1 sequence (P10632 1-490): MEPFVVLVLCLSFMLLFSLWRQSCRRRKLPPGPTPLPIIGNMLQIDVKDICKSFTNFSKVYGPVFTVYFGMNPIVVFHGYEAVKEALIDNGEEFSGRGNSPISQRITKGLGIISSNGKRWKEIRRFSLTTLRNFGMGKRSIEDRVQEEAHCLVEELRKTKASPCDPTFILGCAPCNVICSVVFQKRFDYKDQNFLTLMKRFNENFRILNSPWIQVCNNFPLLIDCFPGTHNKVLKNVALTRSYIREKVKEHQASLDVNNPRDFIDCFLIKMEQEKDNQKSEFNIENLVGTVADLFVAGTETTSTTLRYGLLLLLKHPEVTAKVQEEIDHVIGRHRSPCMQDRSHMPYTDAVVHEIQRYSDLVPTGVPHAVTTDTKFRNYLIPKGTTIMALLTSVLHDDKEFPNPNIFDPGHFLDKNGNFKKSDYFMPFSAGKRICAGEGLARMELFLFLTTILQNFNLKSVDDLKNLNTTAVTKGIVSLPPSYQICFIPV
Protocol: Human liver microsomes pooled from 15 individuals (male and female) (Pool HMMC-PL020; CellzDirect, Inc., In Vitro Products and Services Division) were used in some experiments of this study.
% Turnover=100−{[TA(final)]/[mean of TA(0 min)]}×100,
% Inhibition of Turnover=100{1−([TA(0 min)]−[TA(final-inhibitor)])/([TA(0 min)]−[TA(final-no inhibitor)])}.
The inhibitors or vehicle control were incubated with the pooled human liver microsomes (1 mg/mL) and NADPH (1 mM) in 0.1 M phosphate buffer, pH 7.4. […] Incubations were conducted in triplicate and terminated by addition of organic solvent. Samples were extracted and analyzed by LC-MS/MS as described above.

[1] = 0.75 μM metaxalone, 20 pmol cyp

Sequence of CYP3A4 (P08684 whole entry): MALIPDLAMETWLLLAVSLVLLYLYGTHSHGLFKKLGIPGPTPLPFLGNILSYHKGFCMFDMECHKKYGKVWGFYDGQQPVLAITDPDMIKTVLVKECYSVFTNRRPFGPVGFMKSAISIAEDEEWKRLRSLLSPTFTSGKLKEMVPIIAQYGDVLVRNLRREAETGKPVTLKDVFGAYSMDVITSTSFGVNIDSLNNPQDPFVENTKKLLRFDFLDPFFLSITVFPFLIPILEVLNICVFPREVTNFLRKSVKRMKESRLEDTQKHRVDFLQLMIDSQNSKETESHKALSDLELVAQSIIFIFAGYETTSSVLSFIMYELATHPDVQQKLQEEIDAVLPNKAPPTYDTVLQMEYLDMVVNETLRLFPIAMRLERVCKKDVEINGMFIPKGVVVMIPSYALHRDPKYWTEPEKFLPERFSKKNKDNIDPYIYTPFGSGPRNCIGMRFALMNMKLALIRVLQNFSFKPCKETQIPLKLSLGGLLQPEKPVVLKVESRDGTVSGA
Sequence of CYP2D6 (P10635 whole entry): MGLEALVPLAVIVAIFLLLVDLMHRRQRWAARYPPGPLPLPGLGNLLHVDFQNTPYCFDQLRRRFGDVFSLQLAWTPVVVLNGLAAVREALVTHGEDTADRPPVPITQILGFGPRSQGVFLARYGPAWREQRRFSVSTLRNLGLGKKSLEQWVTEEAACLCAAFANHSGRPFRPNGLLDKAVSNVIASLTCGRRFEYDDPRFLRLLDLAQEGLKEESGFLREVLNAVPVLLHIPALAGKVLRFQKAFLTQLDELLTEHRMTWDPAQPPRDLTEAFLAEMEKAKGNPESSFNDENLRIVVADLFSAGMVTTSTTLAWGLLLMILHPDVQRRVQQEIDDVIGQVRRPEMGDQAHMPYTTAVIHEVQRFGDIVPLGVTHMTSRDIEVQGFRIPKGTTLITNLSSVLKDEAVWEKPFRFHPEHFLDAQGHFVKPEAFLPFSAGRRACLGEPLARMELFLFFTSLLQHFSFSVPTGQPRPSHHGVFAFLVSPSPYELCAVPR
Sequence of CYP2C19 (P33261 whole entry): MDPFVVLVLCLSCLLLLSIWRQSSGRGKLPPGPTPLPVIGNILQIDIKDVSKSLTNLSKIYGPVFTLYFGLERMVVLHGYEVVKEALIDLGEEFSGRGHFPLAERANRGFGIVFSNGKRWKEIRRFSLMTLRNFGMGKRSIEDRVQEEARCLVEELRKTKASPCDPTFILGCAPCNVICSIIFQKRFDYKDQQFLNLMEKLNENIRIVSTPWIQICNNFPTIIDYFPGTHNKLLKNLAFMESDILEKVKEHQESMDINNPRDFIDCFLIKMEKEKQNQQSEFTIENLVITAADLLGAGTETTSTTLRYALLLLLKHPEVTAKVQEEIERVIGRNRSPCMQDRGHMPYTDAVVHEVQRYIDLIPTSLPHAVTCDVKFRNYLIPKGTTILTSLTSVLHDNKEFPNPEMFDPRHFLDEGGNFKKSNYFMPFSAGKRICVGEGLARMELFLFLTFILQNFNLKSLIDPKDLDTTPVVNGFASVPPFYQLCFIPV

For `Cc1cc(C)cc(OCC2CNC(=O)O2)c1` (stereo not drawn) [metaxalone, 5-[(3,5-dimethylphenoxy)methyl]-2-oxazolidinone], the Inducer/Inhibitor (CYP3A4) was “+”, the “Specific Activity Mean ± SD” value (CYP3A4; Donor 2, Metaxalone 0.4 μM) was 1.20 ± 0.109 pmol/min/million cells and the “6β-Hydroxytestosterone formation Adjusted Mean ± SD” value (CYP3A4; human) was 0.116 ± 0.00524 µM. For the same compound, the “Specific Activity Mean ± SD” value (CYP3A4; human) was under 0.905 ± 0.0213 pmol/min/million cells, the “6β-Hydroxytestosterone formation Adjusted Mean ± SD” value (CYP3A4; human, 4 h, 4 μM) was under 0.100 ± 0.000 µM and the “Specific Activity Mean ± SD” value (CYP3A4; human, 48 h, 0.4 μM) was under 0.893 ± 0.000 pmol/min/million cells. For the same compound, the “effect on CYP3A4 activity” value (CYP3A4; human, hepatocytes, 48 h) was “did not induce CYP3A4 activity”, the “induced CYP3A4 activity” value (CYP3A4; human, hepatocytes, 48 h, 40 μM) was “about 21%” and the “Metaxalone Present Adjusted Individual” value (CYP2D6; metaxalone 0.5 μM) was 0.374 µM and 0.297 µM and 0.286 µM. For the same compound, the “Metaxalone Present Adjusted Mean ± SD” value (CYP2D6; metaxalone 0.5 μM) was 0.319 ± 0.0477 µM, the “Metaxalone Present Raw” value (CYP2D6; metaxalone 0.5 μM) was 0.1868 µM and 0.1486 µM and 0.1431 µM and the “Percent of Metabolic Negative Control Individual” value (CYP2D6; metaxalone 0.5 μM) was 128% and 102% and 98.0%. The “Percent of Metabolic Negative Control Mean ± SD” value (CYP2D6; metaxalone 0.5 μM) was 109 ± 16.3%, the “Metaxalone Present Adjusted Individual” value (CYP2D6; metaxalone 2.5 μM) was 1.52 µM and 1.54 µM and 1.53 µM and the “Metaxalone Present Adjusted Mean ± SD” value (CYP2D6; metaxalone 2.5 μM) was 1.53 ± 0.0111 µM. The “Metaxalone Present Raw” value (CYP2D6; metaxalone 2.5 μM) was 0.7583 µM and 0.7685 µM and 0.767 µM, the “Percent of Metabolic Negative Control Individual” value (CYP2D6; metaxalone 2.5 μM) was 96.9% and 98.2% and 98.0% and the “Percent of Metabolic Negative Control Mean ± SD” value (CYP2D6; metaxalone 2.5 μM) was 97.7 ± 0.707%. The “Metaxalone Present Adjusted Individual” value (CYP2D6; metaxalone 25 μM) was 19.1 µM and 19.7 µM and 18.9 µM, the “Metaxalone Present Adjusted Mean ± SD” value (CYP2D6; metaxalone 25 μM) was 19.2 ± 0.436 µM and the “Metaxalone Present Raw” value (CYP2D6; metaxalone 25 μM) was 9.526 µM and 9.845 µM and 9.429 µM. The “Percent of Metabolic Negative Control Individual” value (CYP2D6; metaxalone 25 μM) was 99.2% and 103% and 98.2%, the “Percent of Metabolic Negative Control Mean ± SD” value (CYP2D6; metaxalone 25 μM) was 99.9 ± 2.27% and the percent turnover (CYP2C19; 0.75 μM metaxalone, 5 pmol CYP450) was 6.9%. The “% Turnover Mean” value (CYP2C19; 0.75 μM metaxalone, 5 pmol cyp) was 6.9%, the “[metaxalone] Mean” value (CYP2C19; 0.75 μM metaxalone, 5 pmol cyp) was 0.662 µM and the “% Turnover %” value (CYP2C19; 0.75 μM metaxalone, 5 pmol cyp) was 2.2% and 7.6% and 11.0%. For the same compound, the “[metaxalone]” value (CYP2C19; 0.75 μM metaxalone, 5 pmol cyp) was 0.696 µM and 0.658 µM and 0.634 µM, the percent turnover (CYP2C19; 0.75 μM metaxalone, 20 pmol CYP450) was 12.5% and the “% Turnover Mean” value (CYP2C19; [1]) was 12.5%. For the same compound, the “[metaxalone] Mean” value (CYP2C19; [1]) was 0.623 µM, the “% Turnover %” value (CYP2C19; [1]) was 7.4% and 13.3% and 16.9% and the “[metaxalone]” value (CYP2C19; [1]) was 0.659 µM and 0.618 µM and 0.591 µM. For the same compound, the percent turnover (CYP2C19; 7.5 μM metaxalone, 5 pmol CYP450) was 6.3%, the “% Turnover Mean” value (CYP2C19; 7.5 μM metaxalone, 5 pmol cyp) was 6.3% and the “[metaxalone] Mean” value (CYP2C19; 7.5 μM metaxalone, 5 pmol cyp) was 7.23 µM. For the same compound, the “% Turnover %” value (CYP2C19; 7.5 μM metaxalone, 5 pmol cyp) was 0.25% and 7.1% and 11.6%, the “[metaxalone]” value (CYP2C19; 7.5 μM metaxalone, 5 pmol cyp) was 7.69 µM and 7.17 µM and 6.82 µM and the percent turnover (CYP2C19; 7.5 μM metaxalone, 20 pmol CYP450) was 18.7%. The “% Turnover Mean” value (CYP2C19; 7.5 μM metaxalone, 20 pmol cyp) was 18.7%, the “[metaxalone] Mean” value (CYP2C19; 7.5 μM metaxalone, 20 pmol cyp) was 6.27 µM and the “% Turnover %” value (CYP2C19; 7.5 μM metaxalone, 20 pmol cyp) was 20.2% and 18.0% and 17.8%. The “[metaxalone]” value (CYP2C19; 7.5 μM metaxalone, 20 pmol cyp) was 6.16 µM and 6.32 µM and 6.34 µM, the Substrate (CYP2C19; CYP isozyme 2C19, summary of studies) was “+” and the “% Turnover” value (CYP2C8; 0.75 μM metaxalone) was 14.3%. The “Conc.” value (CYP2C8; 0.75 μM metaxalone) was 0.661 µM, the “% Turnover” value (CYP2C8; 7.5 μM metaxalone) was −1.8% and the “% inhibition of turnover” value (CYP2C8; 7.5 μM metaxalone) was 107%.
